Laboratory results taken from patent US12304912B2, “Fused bicyclic RAF inhibitors and methods for use thereof” (Jazz Pharmaceuticals Ireland Limited, priority 2020, dated 2025).

Tests used:
[1] = system: BRAF monomers in A375 cells; test: A375 AlphaLISA SureFire pERK1/2 cellular assay (monomer); assay type: cell-based; details: Homo sapiens, A-375; A375 cells, 1 hr; read-out: pERK A375 (1 hr) pIC50 (converted)
Outline: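 BRAF^V600E A375 melanoma cells seeded at 30,000/well in DMEM with 10% FBS, dosed without medium exchange in a 10-point series from 10 μM at 1/2-log steps, 1 h at 37 °C. Phospho-ERK1/2 (Thr202/Tyr204) measured in lysates by AlphaLISA SureFire; absolute IC50 relative to DMSO control.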

[2] = Plasma protein binding assay, mouse plasma (mPPB); assay type: in vitro ADME; details: 5 μM, equilibrium dialysis 4 hours at 37° C.
Outline: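 Equilibrium dialysis of 5 μM compound in previously frozen human or mouse plasma against phosphate buffer, 4 h at 37 °C. Both chambers quantified by LC-MS/MS; % free = (1−((PC−PF)/PC))×100.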

WiDr cells = test: WiDr CellTiter-Glo 3D cell proliferation assay; assay type: cell-based; details: Homo sapiens; WiDr cells, 3D proliferation; read-out: 3D WiDr pGI50 (converted)
[3] = system: constitutive ERK phosphorylation in HCT-116 cells; test: HCT-116 AlphaLISA SureFire pERK1/2 cellular assay; assay type: cell-based, human; details: Homo sapiens, HCT-116; HCT116 cells, 2 hr, Abs; read-out: pERK HCT116 (2 hr) Abs pIC50 (converted)
Outline: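 Cells seeded overnight (30,000/well for 2 h, 15,000/well for 24 h), then dosed in 1% FBS medium with a 10-point series from 1 μM top, 1/3 log steps, for 2 or 24 h at 37 °C. Lysates read by AlphaLISA for Thr202/Tyr204 pERK1/2; absolute IC50 versus DMSO control.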

SMILES	IC50 [1]	mPPB (% free) [2]	GI50 (WiDr cells)	IC50 [3]
O=C1CCc2c(Oc3ccc4c(c3)CC(c3nc(-c5ccnc(C(F)F)c5)c[nH]3)CO4)ccnc2N1 (stereo not shown) [Compound 101, 5-[3-[4-[2-(difluoromethyl)-4-pyridyl]-1H-imidazol-2-yl]chroman-6-yl]oxy-3,4-dihydro-1H-1,8-naphthyridin-2-one]	204 nM	1.1 % free	309 nM	132 nM
CC1CC1C(=O)Nc1cc(Oc2ccc3c(c2)CC(c2nc(-c4ccccc4)c[nH]2)CO3)ccn1 (stereo not shown) [Compound 157]	525 nM	<0.1 % free	661 nM	112 nM
O=C1CCc2c(Oc3ccc4c(c3)CN(c3nc5cc(C(F)(F)F)ccc5[nH]3)CC4)ccnc2N1 [Compound 160]	871 nM	<0.1 % free	2090 nM	135 nM
O=C1CCc2c(Oc3ccc4c(c3)CC(c3nc(C5CCOCC5)c[nH]3)CO4)ccnc2N1 (stereo not shown) [Compound 132, 5-[3-(4-tetrahydropyran-4-yl-1H-imidazol-2-yl)chroman-6-yl]oxy-3,4-dihydro-1H-1,8-naphthyridin-2-one]	759 nM	10.1 % free	1150 nM	347 nM
CC(C)CCc1c[nH]c(C2COc3ccc(Oc4ccnc5c4CCC(=O)N5)cc3C2)n1 (stereo not shown) [Compound 116]	46.8 nM	0.23 % free	126 nM	67.6 nM
O=C(CN1CC(O)C1)Nc1cc(Oc2ccc3c(c2)CC(c2nc(-c4ccccc4)c[nH]2)CO3)ccn1 (stereo not shown) [Compound 153]	501 nM	0.6 % free	5620 nM	200 nM
COc1csc(-c2c[nH]c(C3COc4ccc(Oc5ccnc6c5CCC(=O)N6)cc4C3)n2)c1 (stereo not shown) [Compound 122, 5-[3-[5-(4-methoxy-2-thienyl)-1H-imidazol-2-yl]chroman-6-yl]oxy-3,4-dihydro-1H-1,8-naphthyridin-2-one]	288 nM	0.21 % free	513 nM	132 nM
Cc1cc(-c2c[nH]c(C3COc4ccc(Oc5ccnc6c5CCC(=O)N6)cc4C3)n2)n(C)n1 (stereo not shown) [Compound 106, 5-[3-[4-(2,5-dimethylpyrazol-3-yl)-1H-imidazol-2-yl]chroman-6-yl]oxy-3,4-dihydro-1H-1,8-naphthyridin-2-one]	933 nM	3.0 % free	1550 nM	275 nM
O=C1CCc2c(Oc3ccc4c(c3)CC(c3nc(-c5cncc(C(F)(F)F)c5)c[nH]3)CO4)ccnc2N1 (stereo not shown) [Compound 103, 5-[3-[4-[5-(trifluoromethyl)-3-pyridyl]-1H-imidazol-2-yl]chroman-6-yl]oxy-3,4-dihydro-1H-1,8-naphthyridin-2-one]	389 nM	0.6 % free	537 nM	240 nM
O=C1CCc2c(Oc3ccc4c(c3)CC(c3nc5ccncc5[nH]3)CO4)ccnc2N1 (stereo not shown) [Compound 134, 5-[3-(3H-imidazo[4,5-c]pyridin-2-yl)chroman-6-yl]oxy-3,4-dihydro-1H-1,8-naphthyridin-2-one]	> 1000 nM	9.5 % free	25700 nM	> 1000 nM
O=C1CCc2c(Oc3ccc4c(c3)CC(c3nc(-c5cncc(C(F)F)c5)c[nH]3)CO4)ccnc2N1 (stereo not shown) [Compound 105, 5-[3-[4-[5-(difluoromethyl)-3-pyridyl]-1H-imidazol-2-yl]chroman-6-yl]oxy-3,4-dihydro-1H-1,8-naphthyridin-2-one]	417 nM	0.86 % free	603 nM	178 nM
Cn1nc(C(F)(F)F)cc1-c1c[nH]c(C2COc3ccc(Oc4ccnc5c4CCC(=O)N5)cc3C2)n1 (stereo not shown) [Compound 107, 5-[3-[4-[2-methyl-5-(trifluoromethyl)pyrazol-3-yl]-1H-imidazol-2-yl]chroman-6-yl]oxy-3,4-dihydro-1H-1,8-naphthyridin-2-one]	178 nM	0.3 % free	776 nM	191 nM
CC(=O)Nc1cc(Oc2ccc3c(c2)CC(c2nc(-c4ccccc4)c[nH]2)CO3)ccn1 (stereo not shown) [Compound 156, N-[4-[3-(4-phenyl-1H-imidazol-2-yl)chroman-6-yl]oxy-2-pyridyl]acetamide]	178 nM	0.4 % free	269 nM	42.7 nM
CCn1nc(C)cc1-c1c[nH]c(C2COc3ccc(Oc4ccnc5c4CCC(=O)N5)cc3C2)n1 (stereo not shown) [Compound 124, 5-[3-[4-(2-ethyl-5-methyl-pyrazol-3-yl)-1H-imidazol-2-yl]chroman-6-yl]oxy-3,4-dihydro-1H-1,8-naphthyridin-2-one]	1070 nM	3.9 % free	1450 nM	347 nM
CCc1cc(-c2c[nH]c(C3COc4ccc(Oc5ccnc6c5CCC(=O)N6)cc4C3)n2)ccn1 (stereo not shown) [Compound 118, 5-[3-[4-(2-ethyl-4-pyridyl)-1H-imidazol-2-yl]chroman-6-yl]oxy-3,4-dihydro-1H-1,8-naphthyridin-2-one]	631 nM	1.0 % free	1170 nM	269 nM
O=C(CN1CC[C@@H](O)C1)Nc1cc(Oc2ccc3c(c2)CC(c2nc(-c4ccccc4)c[nH]2)CO3)ccn1 (stereo partly shown) [Compound 145]	537 nM	0.53 % free	6310 nM	166 nM
CN1CCN(CC(=O)Nc2cc(Oc3ccc4c(c3)CC(c3nc(-c5ccccc5)c[nH]3)CO4)ccn2)CC1 (stereo not shown) [Compound 146, 2-(4-methylpiperazin-1-yl)-N-[4-[3-(4-phenyl-1H-imidazol-2-yl)chroman-6-yl]oxy-2-pyridyl]acetamide]	372 nM	0.7 % free	813 nM	178 nM
Cc1cc(-c2c[nH]c(C3COc4ccc(Oc5ccnc6c5CCC(=O)N6)cc4C3)n2)n(CC(F)(F)F)n1 (stereo not shown) [Compound 126, 5-[3-[4-[5-methyl-2-(2,2,2-trifluoroethyl)pyrazol-3-yl]-1H-imidazol-2-yl]chroman-6-yl]oxy-3,4-dihydro-1H-1,8-naphthyridin-2-one]	794 nM	0.7 % free	15100 nM	501 nM
CC(C)(C)CCc1c[nH]c(C2COc3ccc(Oc4ccnc5c4CCC(=O)N5)cc3C2)n1 (stereo not shown) [Compound 115, 5-[3-[4-(3,3-dimethylbutyl)-1H-imidazol-2-yl]chroman-6-yl]oxy-3,4-dihydro-1H-1,8-naphthyridin-2-one]	13.8 nM	0.3 % free	38 nM	45.7 nM
O=C(Cn1cncn1)Nc1cc(Oc2ccc3c(c2)CC(c2nc(-c4ccccc4)c[nH]2)CO3)ccn1 (stereo not shown) [Compound 154]	97.7 nM	0.7 % free	661 nM	28.2 nM
Cc1ccc(-c2c[nH]c(C3COc4ccc(Oc5ccnc6c5CCC(=O)N6)cc4C3)n2)s1 (stereo not shown) [Compound 110]	107 nM	0.1 % free	200 nM	89.1 nM
O=C(Nc1cc(Oc2ccc3c(c2)CC(c2nc(-c4ccccc4)c[nH]2)CO3)ccn1)C1CC1 (racemic) [Compound 136]	162 nM	0.2 % free	170 nM	27.5 nM
COc1ccsc1-c1c[nH]c(C2COc3ccc(Oc4ccnc5c4CCC(=O)N5)cc3C2)n1 (stereo not shown) [Compound 123]	28.2 nM	0.25 % free	53.7 nM	63.1 nM
O=C(Nc1nccc(Oc2ccc3c(c2)CC(c2nc(-c4ccccc4)c[nH]2)CO3)n1)C1CC1 (stereo not shown) [Compound 148, N-[4-[3-(4-phenyl-1H-imidazol-2-yl)chroman-6-yl]oxypyrimidin-2-yl]cyclopropanecarboxamide]	1230 nM	0.4 % free	1200 nM	302 nM
O=C(CN1CCCC1)Nc1cc(Oc2ccc3c(c2)CC(c2nc(-c4ccccc4)c[nH]2)CO3)ccn1 (stereo not shown) [Compound 152]	603 nM	0.47 % free	5620 nM	209 nM
CCc1cc(-c2c[nH]c(C3COc4ccc(Oc5ccnc6c5CCC(=O)N6)cc4C3)n2)n(C)n1 (stereo not shown) [Compound 111]	537 nM	1.73 % free	1020 nM	219 nM
Cn1ncc2ccc(-c3c[nH]c(C4COc5ccc(Oc6ccnc7c6CCC(=O)N7)cc5C4)n3)cc21 (stereo not shown) [Compound 130, 5-[3-[4-(1-methylindazol-6-yl)-1H-imidazol-2-yl]chroman-6-yl]oxy-3,4-dihydro-1H-1,8-naphthyridin-2-one]	1000 nM	0.2 % free	1660 nM	141 nM
Cc1c[nH]c(-c2cc(Oc3ccc4c(c3)CC(c3nc(-c5ccccc5)c[nH]3)CO4)ccn2)n1 (stereo not shown) [Compound 143, 2-(4-methyl-1H-imidazol-2-yl)-4-[3-(4-phenyl-1H-imidazol-2-yl)chroman-6-yl]oxy-pyridine]	794 nM	<0.1 % free	1510 nM	309 nM
